We go through 8 molecules from publication PMC8233136, “Monomeric bile acids modulate the ATPase activity of detergent-solubilized ABCB4/MDR3” (Journal of Lipid Research, 2021).

Where “and” joins values, the source holds several entries; their conditions need not be identical. Identical values can stand only once.

The target of data set [1] is T1, human ABCB4 (Homo sapiens, UniProt P21439).
T1 construct: made in house; host or cells: Pichia pastoris (chromosomally integrated)
The data set is described as follows: ATP hydrolysis (malachite green) of detergent-solubilized, purified ABCB4: modulation of basal ATPase activity. Type of data set: biochemical. As to conditions: for Slope: Hill coefficient of allosteric sigmoidal fit of ATPase stimulation; for EC50: stimulation of basal ATPase activity, allosteric sigmoidal fit; for EC50 / Emax / Concentration at which maximal stimulation (plateau) of ATPase activity is reached / Max. Stimulation (%): 0-1,000 μM; for Emax / Max. Stimulation (%): basal ABCB4 ATPase activity set to 0%; for Concentration at which maximal stimulation (plateau) of ATPase activity is reached: basal ATPase activity. The procedure:
(§1) The sodium salts of conjugated and unconjugated bile acids were dissolved in double-distilled water (ddH2O) or 100% DMSO at a concentration of 100 mM. While glyco-/tauro-/cholic acid (G/T/CA), glyco-/tauro-/chenodeoxycholic acid (G/T/CDCA) were dissolved in ddH2O water, glyco-/tauro-/deoxycholic acid (G/T/DCA), glyco/-tauro-/ursodeoxycholic acid (G/T/UDCA) as wells as Nor-UDCA and taurolithocholic acid (TLCA) were dissolved in DMSO. […] Modulation of the ATP hydrolysis by bile acid was determined in a concentration-dependent manner from 0 to 1,000 μM bile acids.
(§2) Analysis of the ATP activity of ABCB4 was performed by determining the amount of released, free inorganic orthophosphate by the malachite green assay ([53], [54], [60]) with minor modifications. The assay was performed in a total volume of 100 μl consisting of reaction buffer (50 mM Tris HCl, pH 7.4 at 37°C, 100 mM NaCl) supplemented with the 2.5 × cmc of FC-16 and 10 mM MgCl2. For determining the effect of DOPC, different bile acids or combinations thereof, 1–5 μL of the corresponding stock solutions (see lipid and bile acid preparation) were added. Five micrograms of ABCB4 or the BODIPY®-labeled sample was used in every reaction sample. Reaction was started by addition of ATP (5 mM f.c.) and performed for 40 min at 37°C. After 0 and 40 min, the reaction was stopped by transferring 25 μl of the reaction mixture into a 96-well plate containing 175 μl of 20 mM ice-cold sulfuric acid. Additionally, a phosphate standard with concentrations raging from 0 to 500 μM was used. Subsequently, inorganic phosphate was stained by adding 50 μl of dye (0.096% (w/v) malachite green, 1.48% (w/v) ammonium molybdate, 0.173% (w/v) Tween-20, and […] sulfuric acid). After incubation for 15 min, the absorption at 595 nm was measured (iMark™ Microplate Reader, BioRad), and the concentrations of phosphate release were calculated based on the slope of the line calculated based on the phosphate standards.
(§3) Basal ATPase activity of ABCB4 was set to 0% and the effect of supplements was calculated as % stimulation or % inhibition of the basal activity, respectively. For determination of kinetic parameters, bile acid concentration was varied and analyzed according to an allosteric sigmoidal fit (Equation 1):(1) v=vmax∗[S]^h/EC50h+[S]^h
Here, v describes the stimulation (%), vmax is the maximal stimulation (%), EC50 represents the half maximal effective concentration, S is the substrate concentration, and h is the Hill coefficient
In case of inhibition, the reduction (%) was plotted against the bile acid concentration and data were analyzed using Equation 2:(2) y=ymin+(ymax−ymin)/1+10^((logIC50−x)∗slope)
Here, ymax is the smallest, and ymin is the highest amount of inhibition, respectively, and x represents the concentration of the inhibitor. The IC50 value is defined as the concentration necessary to obtain 50% inhibition.
In case of both substrate stimulations, followed by substrate inhibition after maximal stimulation was reached, the modulation (%) was plotted against the substrate concertation and data was analyzed using by two fits: First part (stimulation) was as usually fitted using Equation 1. The second part (substrate inhibition) was analyzed by Equation 3 starting at the last point of the plateau:(3) y=ymin+[…]/(1+x/IC50)
Here, ymax is the highest value of the plateau after stimulation is reached, while ymin is the smallest value of y after maximal stimulation was reached.

In data set [2] the target is T1, human ABCB4. The data set is described as follows: ATP hydrolysis (malachite green) of purified ABCB4 in the presence of 300 μM DOPC (with or without cholesterol). The class given is biochemical. The following applies: for activity at 1000 µM / Relative ATPase activity in the presence of 300 μM DOPC: 1,000 μM bile acid/detergent/BAM + 300 μM DOPC; for activity at 1000 µM: read-out: Relative ATPase activity in the presence of 300 μM DOPC; for Decrease of DOPC-stimulated ATPase activity: 1,000 μM + 300 μM DOPC, relative to DOPC alone. On the procedure:
A sample of purified ABCB4 was incubated with 10-fold molar excess of BODIPY® FL maleimide (BODIPY® FL N-(2-aminoethyl)maleimide, Molecular Probes) at 22°C for 20 min. The reaction was quenched after 20 min by addition of a 20-fold molar excess of dithiothreitol (DTT) at 22°C for 10 min. Qualitative labeling efficiency was analyzed by visualizing a sample after SDS-PAGE by UV excitation.
DOPC was dissolved in chloroform, the solvent was evaporated, and the dried lipid sample was redissolved in ATP hydrolysis reaction buffer (50 mM Tris HCl, pH 7.4 at 37°C, 100 mM NaCl) at a concentration of 25.4 mM following the protocol of Geertsma et al. ([59]). Prior to the addition of the DOPC sample to the ATP hydrolysis assay, it was diluted to 5 mM, sonicated until a clear solution was obtained, and subsequently used at a final concentration of 300 μM. Since chloroform is not suitable for the later ATPase assay and cholesterol at higher concentration is insoluble in water and nearly all solvents, a molar mixture of cholesterol and DOPC was used. This mixture was obtained by adding the required molar ratio of cholesterol to always the same amount of dried DOPC. Afterward, the mixture was treated identical to DOPC only as described above resulting in a final concentration (f.c.) of 300 μM DOPC with 0–1,000 μM cholesterol in the ATPase assay.
as §1, §2, §3

Data set [3] is described as follows: Critical micelle concentration by Hoechst 33342 fluorescence in ATPase reaction buffer. Type of data set: physicochemical. The following applies: 50 mM Tris-HCl pH 7.5, 100 mM NaCl, 37°C; no FC-16, MgCl2 or ATP. The procedure: CMC values were determined as described ([61]). […] 96-well plates suitable for fluorescence spectroscopy (Greiner Bio-One, FIA plate, black, flat bottom, medium binding) were used. […] CMCs of the bile acids were determined in ATPase reaction buffer (50 mM Tris-HCl, pH 7.5 (at 37°C), 100 mM NaCl) containing no FC-16, MgCl2, or ATP at 37°C using a Tecan M200 plate reader (Atlantic lab equipment). Bile acids were dissolved either in ddH2O or in 100% DMSO (as stated in “Lipid, cholesterol and bile acid preparation”) at a concentration of 100 mM. […] In case of hydrophobic bile acids, which were dissolved in DMSO, DMSO concentration was adapted to 1% in all wells. […] After background correction, fluorescence data were analyzed using Prism (version 8, GraphPad) with Equation 4:(4) F=Fmax∗(c[BA]−cmc)/(K0.5−cmc)+(c[BA]−cmc)
The measured fluorescence at each bile acid concentration (c[BA]) is represented by F, while Fmax is the maximal fluorescence, K0.5 is the midpoint of the function, and cmc is the critical micelle concentration of the bile acid.

[4] abbreviates: vmax of allosteric sigmoidal fit (Equation 1), read-out: Max. Stimulation (%).
Where [5] appears, read: basal = 0%, negative = inhibition, duplicates.
The mark [6] stands for this setting: vmax of allosteric sigmoidal fit (Equation 1).

T1 sequence (P21439 1-1279 isoform P21439-2): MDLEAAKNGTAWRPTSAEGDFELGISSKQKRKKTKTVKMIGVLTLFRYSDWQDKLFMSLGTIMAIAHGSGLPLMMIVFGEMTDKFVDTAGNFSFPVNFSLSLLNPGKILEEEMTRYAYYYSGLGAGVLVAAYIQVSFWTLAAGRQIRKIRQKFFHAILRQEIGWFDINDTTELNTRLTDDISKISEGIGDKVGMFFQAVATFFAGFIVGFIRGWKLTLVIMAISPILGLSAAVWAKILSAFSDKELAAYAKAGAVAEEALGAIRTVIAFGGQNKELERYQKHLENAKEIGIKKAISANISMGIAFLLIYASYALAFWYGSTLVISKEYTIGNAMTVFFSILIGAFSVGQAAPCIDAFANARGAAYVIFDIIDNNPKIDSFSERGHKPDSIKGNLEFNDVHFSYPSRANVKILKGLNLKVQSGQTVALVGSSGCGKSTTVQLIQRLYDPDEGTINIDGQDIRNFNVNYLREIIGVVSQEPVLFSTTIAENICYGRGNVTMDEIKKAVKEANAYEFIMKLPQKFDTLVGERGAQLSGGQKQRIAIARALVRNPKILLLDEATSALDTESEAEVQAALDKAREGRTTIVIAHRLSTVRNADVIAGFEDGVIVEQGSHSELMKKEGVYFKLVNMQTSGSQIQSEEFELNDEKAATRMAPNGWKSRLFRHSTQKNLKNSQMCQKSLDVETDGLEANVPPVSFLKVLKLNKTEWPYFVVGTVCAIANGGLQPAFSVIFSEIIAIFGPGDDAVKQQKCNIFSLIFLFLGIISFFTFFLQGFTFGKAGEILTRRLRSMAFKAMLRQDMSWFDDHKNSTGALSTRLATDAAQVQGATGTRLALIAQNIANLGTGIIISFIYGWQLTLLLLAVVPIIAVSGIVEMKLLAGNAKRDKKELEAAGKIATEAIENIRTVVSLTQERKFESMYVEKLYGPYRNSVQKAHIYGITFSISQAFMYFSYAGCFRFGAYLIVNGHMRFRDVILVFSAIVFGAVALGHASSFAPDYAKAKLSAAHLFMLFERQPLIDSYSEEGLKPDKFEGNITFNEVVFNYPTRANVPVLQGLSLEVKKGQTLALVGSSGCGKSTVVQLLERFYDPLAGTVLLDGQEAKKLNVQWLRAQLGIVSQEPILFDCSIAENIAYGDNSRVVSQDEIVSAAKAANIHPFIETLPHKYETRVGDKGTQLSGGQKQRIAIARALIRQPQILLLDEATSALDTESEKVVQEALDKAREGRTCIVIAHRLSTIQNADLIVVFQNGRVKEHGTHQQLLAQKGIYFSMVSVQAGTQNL

One may read the EC50 as the midpoint of the concentration-response curve. As to `C[C@H](CCC(=O)NCC(=O)O)[C@H]1CC[C@H]2[C@@H]3[C@@H](O)C[C@@H]4C[C@H](O)CC[C@]4(C)[C@H]3CC[C@]12C` [GUDCA], in data set [1], the Slope is 4.5 ± 1.0. The EC50 in data set [1] (read-out: EC50) worked out at 393 µM. For the same molecule, the Emax in data set [1] (setting [4]) was determined as 185 ± 13%. Moreover, the activity at 1000 µM in data set [2] (DOPC alone set to 100%) came to 111 ± 3.1%. For the same molecule, the “Critical micelle concentration (cmc)” value in data set [3] was 1.6 mM and 1.6 ± 0.1 mM.

As for `C[C@H](CCC(=O)NCCS(=O)(=O)O)[C@H]1CC[C@H]2[C@@H]3CC[C@@H]4C[C@H](O)CC[C@]4(C)[C@H]3C[C@H](O)[C@]12C` [TDCA], the Slope in data set [1] was 2.7 ± 0.3. For the same molecule, the 50% effective concentration (EC50) in data set [1] (read-out: EC50) stood at 102 ± 4.2 µM. Moreover, in data set [1] (setting [4]), the Emax worked out at 217 ± 4%. In addition, the activity at 1000 µM in data set [2] (DOPC alone set to 100%) turned out to be 84.8 ± 9.3%. For the same molecule, the “Critical micelle concentration (cmc)” value in data set [3] was 1.7 mM and 1.7 ± 0.1 mM.

Consider `CC(C)CCC[C@@H](C)[C@H]1CC[C@H]2[C@@H]3CC=C4C[C@@H](O)CC[C@]4(C)[C@H]3CC[C@]12C` [Cholesterol], for which the “ATPase activity at cholesterol:DOPC ratio 1.5:1” value in data set [2] (300 μM DOPC, DOPC alone set to 100%) is listed as 190.4 ± 9.4%. The Emax in data set [2] (300 μM DOPC, DOPC alone set to 100%, cholesterol:DOPC ratios 1-2, read-out: Maximal stimulation of ATPase activity by cholesterol (vmax)) was determined as 204 ± 5.9%. The “ATPase activity at cholesterol:DOPC molar ratio 0.04” value in data set [2] (300 μM DOPC, DOPC alone set to 100%, considered no stimulation) was found to be 119%. In data set [2] (cholesterol mixed with 300 μM DOPC, molar ratios 0-3.3 (cholesterol to DOPC)), the EC50 was 210 µM. In addition, in data set [2] (cholesterol mixed with 300 μM DOPC, allosteric sigmoidal fit), the Slope was determined as 7.8 ± 2.2. Besides, in data set [2] (cholesterol mixed with 300 μM DOPC, stimulation in addition to DOPC stimulation), the “Max. Stimulation (%)” value is 103.5 ± 5.9%.

With `C[C@H](CCC(=O)NCCC[N+](C)(C)CCCS(=O)(=O)[O-])[C@H]1CC[C@H]2[C@@H]3[C@H](O)C[C@@H]4C[C@H](O)CC[C@]4(C)[C@H]3C[C@H](O)[C@]12C` [CHAPS, 3-[(3-cholamidopropyl)dimethylammonio]-1-propanesulfonate], in data set [1] (setting [5]), the “Modulation of basal ATPase activity at 10 μM” value is “–7.1 ± 3.6%”. In addition, the “Modulation of basal ATPase activity at 50 μM” value in data set [1] (50 μM, basal = 0%, negative = inhibition, duplicates) is given as “–9.9 ± 5.0%”. In data set [1], the Slope came out at 3.7 ± 2.1 and the “Concentration at which maximal stimulation (plateau) of ATPase activity is reached” value (“Concentration … of ATPase activity is reached” for short) came out at 300 µM. The EC50 in data set [1] (read-out: EC50) was determined as 151 ± 20.8 µM. In addition, in data set [1] (setting [6]), the “Max. Stimulation (%)” value is given as 142.6 ± 11.5%. Further, the “Decrease of DOPC-stimulated ATPase activity” value in data set [2] was “approximately 50%”. The “Relative ATPase activity in the presence of 300 μM DOPC” value in data set [2] (DOPC alone set to 100%) came to 52.6 ± 6.5%.

Turning to `CCCCCCCC/C=C\CCCCCCCC(=O)OC[C@H](COP(=O)([O-])OCC[N+](C)(C)C)OC(=O)CCCCCCC/C=C\CCCCCCCC` [DOPC, 1,2-dioleoyl-sn-glycero-3-phosphocholine], the “ATPase activity of nonlabeled protein” value in data set [2] (presence of 300 μM DOPC, 5 μg protein) was 488.6 ± 44.5 nmol/min/mg. Moreover, the “Specific ATPase activity of ABCB4 (Bodipy-labeled activity subtracted)” value in data set [2] (presence of 300 μM DOPC, basal 132.1 ± 13.0) was found to be 275.8 ± 24.8 nmol/min/mg. For the same molecule, the “ATPase activity of ABCB4-Bodipy (Bodipy-labeled protein)” value in data set [2] (with 300 μM DOPC, non-ABCB4-mediated background) came to 212.8 ± 19.7 nmol/min/mg.

Take `C[C@H](CCC(=O)NCCC[N+](C)(C)CC(O)CS(=O)(=O)[O-])[C@H]1CC[C@H]2[C@@H]3[C@H](O)C[C@@H]4C[C@H](O)CC[C@]4(C)[C@H]3C[C@H](O)[C@]12C` (stereo partly shown) [CHAPSO, 3-[(3-cholamidopropyl)dimethylammonio]-2-hydroxy-1-propanesulfonate]: the “Modulation of basal ATPase activity at 10 μM” value in data set [1] (setting [5]) is listed as “–7.5 ± 8.6%”. Moreover, in data set [1], the Slope amounted to 4.3 ± 2.5 and the “Concentration … of ATPase activity is reached” value is 300 µM. For the same molecule, the concentration for a half-maximal effect (EC50) in data set [1] (read-out: EC50) worked out at 125 ± 23.3 µM. Besides, the “Max. Stimulation (%)” value in data set [1] (setting [6]) is on record as 145.4 ± 15.3%. Also, in data set [2], the “Decrease of DOPC-stimulated ATPase activity” value is “approximately 50%”. For the same molecule, the “Relative ATPase activity in the presence of 300 μM DOPC” value in data set [2] (DOPC alone set to 100%) turned out to be 48.7 ± 3.0%.

Consider `C[C@H](CCC(=O)O)[C@H]1CC[C@H]2[C@@H]3CC[C@@H]4C[C@H](O)CC[C@]4(C)[C@H]3CC[C@]12C` [LCA, lithocholic acid], for which the “Critical micelle concentration (cmc)” value in data set [3] is recorded as “Precipitate ^a”.

For `C[C@H](CCC(=O)NCCS(=O)(=O)O)[C@H]1CC[C@H]2[C@@H]3[C@H](O)C[C@@H]4C[C@H](O)CC[C@]4(C)[C@H]3C[C@H](O)[C@]12C` [TCA, taurocholic acid], in data set [1] (EC50 (μM)), the EC50 is 114 µM. Besides, in data set [1], the Slope amounted to 2.6 ± 0.5 and the “Concentration … of ATPase activity is reached” value was “approximately 400 μM”. The Emax in data set [1] (read-out: Max. Stimulation (%), vmax of allosteric sigmoidal fit (Equation 1)) was determined as 539 ± 24%. The “Critical micelle concentration (cmc)” value in data set [3] is 3.5 mM and 3.5 ± 0.1 mM.
